According to patent US4361573A, “α,α-Diaryl-β-(tert-amino)-propanols and diuretic pharmaceutical compositions containing them” (Temmler AG, priority 1974, dated 1982):
Like-named read-outs stand apart in the source and are kept apart here.

Key:
[1] = mice, oral; literature value; cited from earlier work
[2] = saluretic efficiency test in rats: elimination of water, sodium, chloride and potassium in 6 h urine after oral dosing; type: in vivo; conditions: rats, oral; for change in vivo at 40 µmol/kg / change in vivo at 80 µmol/kg: Rattus norvegicus
Description: In order to test the saluretic efficiency of the compounds of the invention rats having a weight of 150 to 200 g were used. The animals were kept without food, but not without drinking water, for 15 hours before the beginning of the test. The test substances were administered to groups of four rats, of substantially equal weight, with a rigid stomach probe in a 1% methyl cellulose slime. The dose required per 100 g animal (unit dosage in μmol/kg body weight) was contained in one ml. Following the administration of the substance the rats were given 5 ml 0.9% sodium chloride solution per 100 g body weight p.o. and placed in a diuresis funnel after manually emptying the bladder. Urine was collected for 6 hours in an airconditioned chamber at 24°±1° C. and a relative air humidity of 50±5%. The diuretic effect of a particular dose was tested on at least two, but more frequently however on four to eight groups of rats. Two sodium chloride controls were also used for each test day.
At the end of the collecting periods the volumes of urine discharged per group were noted and the pH value and also the content of sodium, potassium (flame-photometrically) and chloride (measured argentometrically with the determination of the end point potentiometrically) were determined.
From the analysis results the quantities of Na^+, K^+ and Cl^- eliminated were calculated in […] body weight, and the values thus obtained compared with those of the control animals.
Means values and twice the standard deviation were calculated from the data for the sodium chloride controls, in order to determine the normal range. Then, for the values found with the test substances, the percentage variations from the average in respect of these parameters were calculated and tabulated. In this connection, with the results given in Table 1, the upper limit of the normal range, which is defined as the mean value plus twice the standard deviation, was selected as the reference quantity for the variations. In this way relevant hyper-eliminations could clearly be recognised.
In Table 2, the mean percentage variations in potassium elimination after administration of the compounds in accordance with the invention are compared with the mean value of the potassium elimination in the case of the sodium chloride controls. At the same time the […] ratio is given which provides conclusive evidence of the effective saluretic property. The larger this quotient is, then the more sodium than potassium is eliminated in proportion.

[3] = comparison of toxicity in mice: oral LD50 by the Lichtfiel & Wilcoxon method; type: in vivo; conditions: mouse, in vivo, observation period 7 days, 95% confidence limit in brackets, read-out: LD50
From the text: In Table 3 the mean lethal doses for mice, administered orally (LD50 determination by the […] & WILCOXON method - J.Pharmacol. Exp. Ther. 96,98 (1949)) are compared.

[4] = 6 h, 40 μmol/kg body wt., relative to mean K+ elimination of the controls, read-out: Mean percentage variation in the elimination of potassium
[5] = 6 h, 80 μmol/kg body wt., relative to mean K+ elimination of the controls, read-out: Mean percentage variation in the elimination of potassium
[6] = 40 μmol/kg body wt., deviation from control mean plus twice the standard deviation, 6 h urine, read-out: Mean percentage variation in the elimination of Chloride
[7] = 40 μmol/kg body wt., deviation from control mean plus twice the standard deviation, 6 h urine, read-out: Mean percentage variation in the elimination of H2O
[8] = 40 μmol/kg body wt., deviation from control mean plus twice the standard deviation, 6 h urine, read-out: Mean percentage variation in the elimination of Sodium
[9] = 80 μmol/kg body wt., deviation from control mean plus twice the standard deviation, 6 h urine, read-out: Mean percentage variation in the elimination of Chloride
[10] = 80 μmol/kg body wt., deviation from control mean plus twice the standard deviation, 6 h urine, read-out: Mean percentage variation in the elimination of H2O
[11] = 80 μmol/kg body wt., deviation from control mean plus twice the standard deviation, 6 h urine, read-out: Mean percentage variation in the elimination of Sodium

SMILES | LD50 [1] [mg/kg] | change in vivo at 40 µmol/kg [2, 4] [%] | change in vivo at 80 µmol/kg [2, 5] [%] | change in vivo at 40 µmol/kg [2, 6] [%] | change in vivo at 40 µmol/kg [2, 7] [%] | change in vivo at 40 µmol/kg [2, 8] [%] | change in vivo at 80 µmol/kg [2, 9] [%] | change in vivo at 80 µmol/kg [2, 10] [%] | change in vivo at 80 µmol/kg [2, 11] [%] | Quotient Na/K ([2]; 40 μmol/kg body wt.) | Quotient Na/K ([2]; 80 μmol/kg body wt.) | LD50 [3] [mg/kg]
N=C(N)NC(=O)c1nc(Cl)c(N)nc1N [N-amidino-3.5-diamino-6-chloropyrazinocarboxamide] | 70 |  |  |  |  |  |  |  |  |  |  | 
COc1c(C)cc(C(O)(c2cc(C(C)C)c(OC)c(C(C)C)c2)C(C)N2CCCCC2)cc1C (stereo not drawn) [T 2266, 1-(4'-methoxy-3',5'-diisopropylphenyl)-1-(4"-methoxy-3",5"-dimethylphenyl)-2-piperidinopropan-1-ol] |  | -2 | 4 | -13.2 | -12.9 | -7.7 | 12.2 | 19.7 | 19.4 | 5.59 | 6.81 | > 3200
CCOc1c(C(C)C)cc(C(O)(c2ccc(OC)cc2)C(C)N2CCCCC2)cc1C(C)C (stereo not drawn) [T 2310] |  | 14.3 | -2 | 8.9 | 41.3 | 27.3 | 36.3 | 67.9 | 42.3 | 6.62 | 8.64 | 520
COc1c(C(C)C)cc(Cl)c(C)c1C(O)(c1ccccc1)C(C)N1CCCC1 (stereo not drawn) [T 2350, 1-(3'-chloro-6'-methoxy-2'-methyl-5'-isopropylphenyl)-1-phenyl-2-pyrriolidino-propan-1-ol] |  | -2 | 25.5 | 2.6 | 24.1 | 15.5 | 21.2 | 49.8 | 40.5 | 7.00 | 6.65 | > 4500
C=CCc1cc2c(cc1C(O)(c1ccc(OC)cc1)C(C)N1CCCCC1)OCO2 (stereo not drawn) [T 2378, 1-(3',4'-methylenedioxy-6'-allylphenyl)-1-(4"-methoxyphenyl)-2-piperidino-propane-1-ol] |  | 11.2 | 32.7 | -5.6 | 6.7 | 6.7 | -20.4 | 39.6 | 45 | 5.70 | 6.49 | 1600
CCOc1ccc(C(O)(c2cc(C(C)C)c(OCC)c(C(C)C)c2)C(C)N2CCCCC2)cc1 (stereo not drawn) [T 2453, 1-(4'-ethoxy-3',5'-diisopropylphenyl)-1-(4"-ethoxyphenyl)-2-piperidino-propan-1-ol] |  | -2 |  | 6.9 | 13.4 | 7.6 | 31.2 | 51.7 | 62.2 | 6.52 | 9.63 | 700
COc1ccc(C(O)(c2cc(C(C)(C)C)cc(C)c2OC)C(C)N2CCCCC2)c(OC)c1 (stereo not drawn) [T 2455, 1-(2'-methoxy-3'-methyl-5'-tertiary-butylphenyl)-1-(2",4"-dimethoxyphenyl)-2-piperidino-propan-1-ol] |  | 13.3 | -23.5 | 21.4 | 39.8 | 31.3 | 34.8 | 62.4 | 55.8 | 6.88 | 12.93 | 4550
COc1ccc(C(O)(c2cc(C(C)(C)C)cc(C)c2OC)C(C)N2CCCCC2)cc1OC (stereo not drawn) [T 2464, 1-(2'-methoxy-3'-methyl-5'-tertiary-butylphenyl)-1-(3",4"-dimethoxyphenyl)-2-piperidinopropan-1-ol] |  | 9.2 | -1 | 30.4 | 49.8 | 64.4 | 38.3 | 65.9 | 79 | 8.94 | 10.74 | > 4550
COc1ccc(C)cc1C(O)(c1cc(C(C)C)c(OCc2ccccc2)c(C(C)C)c1)C(C)N1CCCCC1 (stereo not drawn) [T 2481, 1-(2'-methoxy-5'-methylphenyl)-1-(4"-benzyloxy-3",5"-diisopropylphenyl)-2-piperidino-propan-1-ol] |  | -4.1 | 16.3 | -7.5 | 3 | -2.4 | 20 | 34.1 | 43.8 | 6.04 | 7.34 | 3780
COc1c(C)cc(C(O)(c2cc(Cl)cc(C)c2OC)C(C)N(C)C(C)(C)C)cc1C (stereo not drawn) [T 2493, 1-(3'-chloro-6'-methoxy-5'-methylphenyl)-1-(4"-methoxy-3",5"-dimethylphenyl)-2-(N-methyl-tertiary-butylamino)-propan-1-ol] |  | 35.7 | 34.7 | 41 | 59.2 | 62.7 | 41.5 | 64.4 | 76.8 | 7.74 | 7.88 | 3610
